According to patent US6218378A, “Anti-tumor agents comprising pyridyl-substituted metal-diphosphine complex” (priority 1994, dated 2001):
Read-outs that look alike come from different tables or passages of the source.

Tests used:
[1] = test system: 41M, 41M-cisR, SKOV-3, CH1, CH1-cisR; assay: growth inhibition of cisplatin-sensitive and -resistant ovarian cancer cell lines (Table 2, FIG. 5); assay type: cell-based, human; details: 96h incubation
From the text: (§1) The sensitive CH1 cell line was established from a patient with drug-sensitive disease and its resistant variant (CH1-cisR) was generated by prolonged in vitro exposure to cisplatin during which it acquired more efficient DNA repair as described in Kelland et al., 1992, Cancer Research 52 3857-3864. The sensitive 41M cell line was also established from a patient with a sensitive tumor and its resistant variant (41M-cisR) was generated in the same way but acquired decreased uptake across the cell membrane (Kelland et al., 1992, supra). The intrinsically-resistant SKOV-3 ovarian carcinoma cell line has high glutathione levels as described in Mistry et al., 1991, Brit. J. Cancer 64 215-220 and reduced levels of bi-functional cisplatin-DNA lesions as described in McKeage et al., 1994, Brit. J. Cancer 69 1-7. The characteristics of the cell line pairs CH1/CH1 cisR, 41M/41McisR and 41M/SKOV3 are described in Table 3.
(§2) The cytotoxicity assay used sulforhodamine B which stains the basic amino acids. Cells (5000 or 2500 for SKOV-3) were seeded into 96 well microtitre plates (Linbro, Flow Laboratories Inc., USA) in 0.1 ml of medium. After an overnight incubation, the metal phosphine compounds were dissolved in 0.9% NaCl or ethanol and diluted with medium, were added at concentrations ranging from 0.005 to 50 μM to quadruplicate wells. After 96 hrs incubation, the medium was removed and cells were fixed in 0.2 ml of cold 10% (w/v) trichloroacetic acid (May & Baker Ltd., Dagenham, England) for 30 mins at 4° C. The plates were washed five times with tap water. Then 0.1 ml of 0.4% (w/v) sulforhodamine B (Sigma Chemical Co., St. Louis, USA) dissolved in 1% acetic acid (Ajax Chemicals, Australia) was added to the wells and left to stand at room temperature for 15 mins. The plates were then washed five times with 1% acetic acid and left to dry overnight. The next morning, 0.1 ml of 10 mM Tris buffer (Sigma Chemical Co., St. Louis, USA) was then added to each plate to solubilise the dye. Absorbance was read at a wavelength of 570 nm using a 96 well plate reader Dynatech MR 5000 plate reader. Absorbance of treatment cells was expressed as a percentage of positive (drug-free) controls. The results were plotted as percentage growth versus drug concentration. The drug concentration resulting in a 50% growth inhibition was termed the IC50. The passage numbers used for the cytotoxicity assay from each cell line were, CH1 passages 50-58, CH1 cis-R passages 77-83, 41M passages 50-63, 41M cisR 81-92 and SKOV-3 passages 106-128.

41M = assay: cytotoxicity assay, sulforhodamine B; assay type: cell-based, human; details: 96 hrs, mean ± SD or individual values when n<3
Protocol: (§3) In Table 2, reference is made to cell lines 41M, 41M-cisR, SKOV-3, CH1 and CH1-cisR.
(§4) J. Cancer 69 1-7. The characteristics of the cell line pairs CH1/CH1 cisR, 41M/41McisR and 41M/SKOV3 are described in Table 3.
as §2, with “concentration.” for “concentration. The drug concentration resulting in a 50% growth inhibition was termed the IC50. The passage numbers used for the cytotoxicity assay from each cell line were, CH1 passages 50-58, CH1 cis-R passages 77-83, 41M passages 50-63, 41M cisR 81-92 and SKOV-3 passages 106-128.”

41M-cisR = assay: cytotoxicity assay, sulforhodamine B; assay type: cell-based, human; details: 96 hrs, mean ± SD or individual values when n<3
Protocol: as §3, §4
as §2, with “concentration.” for “concentration. The drug concentration resulting in a 50% growth inhibition was termed the IC50. The passage numbers used for the cytotoxicity assay from each cell line were, CH1 passages 50-58, CH1 cis-R passages 77-83, 41M passages 50-63, 41M cisR 81-92 and SKOV-3 passages 106-128.”

SKOV-3 = assay: cytotoxicity assay, sulforhodamine B; assay type: cell-based, human; details: 96 hrs, mean ± SD or individual values when n<3
Protocol: as §3, §4
as §2, with “concentration.” for “concentration. The drug concentration resulting in a 50% growth inhibition was termed the IC50. The passage numbers used for the cytotoxicity assay from each cell line were, CH1 passages 50-58, CH1 cis-R passages 77-83, 41M passages 50-63, 41M cisR 81-92 and SKOV-3 passages 106-128.”

human tumour cell lines = assay: selectivity of cytotoxicity over all cell lines evaluated (Tables 1 and 2); assay type: cell-based
From the text: The origins of the human melanoma cell line MM96 has been described in Whitehead et al., 1973, Pigment Cell 1 383-389. The cell line JAM is described in Ward et al., 1987, Cancer Res. 47 2662-2667. The origin of the ovarian tumour line CI-80-13S has been described in Bertoncello et al., 1985, Aust. J. Exp. Biol. Med. Sci. 63 241-243. The origin of the cervical carcinoma cell line HeLa has been described in Maynard et al., 1986, Cancer Res. 46 5009-5093. The subclone HeLa-S1a was derived by stably transfecting HeLa with PAI-2 cDNA described in Schleuning et al., 1987, Mol. Cell. Biol. 7 4564-4567 in the sense orientation under the control of the cyto-megalovirus (CMV) promoter. The stably infected subclone was isolated following G418 selection and expression of the PAI-2 transgene characterised by immunoblot analysis and quantitated by ELISA. All of these cell lines have been used before for carrying out cell survival assays referred to in FIGS. 1-4. Cells were cultured at 37° in 5% CO2 /air in Roswell Park Memorial Institute medium 1640 containing 5% foetal calf serum, 100 μg/ml streptomycin, 100 IU/ml penicillin, 1 mM pyruvate, 50 μM nicotinamide and 3 mM HEPES.
Cells were seeded in microtitre plates (lowest number for fastest growing cells: 1000 HeLa, 2000 MM96, […] CI-80-13S cells per 6 mm well in 100 μl), normally but not necessarily allowed to attach overnight, then 5 dilutions of the drug were added to duplicate wells. After an overnight incubation to equilibrate the pH, the lids were quickly taped around the edge to prevent evaporation. The plates were incubated for 5-7 days, until the controls were nearly confluent. Cell growth/morphology was scored at each dose visually (inverted microscope). The medium was then replaced by 50 μl fresh medium containing 2 u/Ci/ml [methyl-3H]-thymidine (5 Ci/mmol; Radiochemical Centre, Amersham, Bucks., U.K.) and incubated for 2-4 hr. The cells were washed with PBS (0.1 M NaCl, 50 mM phosphate, pH 7.2), detached with 100 μl of PBS containing 0.2 mg/ml trypsin and 10 mM EDTA, and washed onto a glass fibre GF/a filter mat with water using a cell harvester. Later, wells were checked under the microscope to ensure complete detachment and washout. Radioactivity was determined in an LKB Beta Plate counter and the results plotted as log % control cpm versus dose. The ID50 (dose required to give 50% survival) was interpolated from this survival curve.
as §1
The cytotoxicity assay used sulforhodamine B which stains the basic amino acids. Cells (5000 or 2500 for SKOV-3) were seeded into 96 well microtitre plates (Linbro, Flow Laboratories Inc., USA) in 0.1 ml of medium. After an overnight incubation, the metal phosphine compounds were dissolved in 0.9% NaCl or ethanol and diluted with medium, were added at concentrations ranging from 0.005 to 50 μM to quadruplicate wells. After 96 hrs incubation, the medium was removed and cells were fixed in 0.2 ml of cold 10% (w/v) trichloroacetic acid (May & Baker Ltd., Dagenham, England) for 30 mins at 4° C. The plates were washed five times with tap water. […]

CH1-cisR = assay: cytotoxicity assay, sulforhodamine B; assay type: cell-based, human; details: 96 hrs, mean ± SD or individual values when n<3
Protocol: as §3, §4
as §2, with “concentration.” for “concentration. The drug concentration resulting in a 50% growth inhibition was termed the IC50. The passage numbers used for the cytotoxicity assay from each cell line were, CH1 passages 50-58, CH1 cis-R passages 77-83, 41M passages 50-63, 41M cisR 81-92 and SKOV-3 passages 106-128.”

CH1 = assay: cytotoxicity assay, sulforhodamine B; assay type: cell-based, human; details: 96 hrs, mean ± SD or individual values when n<3
Protocol: as §3, §4
as §2, with “concentration.” for “concentration. The drug concentration resulting in a 50% growth inhibition was termed the IC50. The passage numbers used for the cytotoxicity assay from each cell line were, CH1 passages 50-58, CH1 cis-R passages 77-83, 41M passages 50-63, 41M cisR 81-92 and SKOV-3 passages 106-128.”

cisplatin cytotoxicity [2] = details: in vivo; cited from earlier work
cisplatin cytotoxicity [3] = details: in vitro; cited from earlier work

SMILES	selectivity and cytotoxicity in ovarian cancer cell-lines (FIG. 5) [1]	IC50 (41M)	IC50 (41M-cisR)	IC50 (SKOV-3)	number of cell lines against which cytotoxic (human tumour cell lines)	degree of selectivity (human tumour cell lines; Tables 1 and 2)	IC50 (CH1-cisR)	IC50 (CH1)	enhancement of cisplatin cytotoxicity (cisplatin cytotoxicity [2])	enhancement of cisplatin cytotoxicity (cisplatin cytotoxicity [3])
[Au+].[Cl-].c1ccc(P(CCP(c2ccccc2)c2ccccn2)c2ccccn2)cc1.c1ccc(P(CCP(c2ccccc2)c2ccccn2)c2ccccn2)cc1 (centres unmarked) [[Au(2-pyppe)2]Cl]	cytotoxic to the 41M pair and the resistant SKOV-3	0.1 µM	0.1 µM	0.2 µM	cytotoxic to all the cell lines evaluated	the least selectivity				
Cl.c1cncc([P+]2(c3cccnc3)CC[P+](c3cccnc3)(c3cccnc3)[Au-3]23[P+](c2cccnc2)(c2cccnc2)CC[P+]3(c2cccnc2)c2cccnc2)c1 [[Au(d3pype)2]Cl]		> 25 µM	11 µM	> 25 µM			10 µM	1.5 µM		
Cl.c1cncc([P+]2(c3cccnc3)CC[P+](c3cccnc3)(c3cccnc3)[Cu-3]23[P+](c2cccnc2)(c2cccnc2)CC[P+]3(c2cccnc2)c2cccnc2)c1 [[Cu(d3pype)2]Cl]		> 50 µM	30 µM	> 50 µM				3 µM		
Cc1cc(N)c2ccccc2[n+]1CCCCCCCCCC[n+]1c(C)cc(N)c2ccccc21 [delqualinium]									enhance cisplatin cytotoxicity	enhance cisplatin cytotoxicity
